Read-outs that look alike come from different tables or passages of the source.
Assays:
[1] = In vitro drug release of MTG from gels (Franz cell); details: nylon membrane, time point not clearly stated (steady release up to 2 h)
Experimental: (§1) The in vitro permeation study was performed in triplicate using Franz diffusion cell apparatus with a diffusion area of ~ 0.8 cm^2 and a receptor volume of ~ 3 mL. The porcine skin was thawed at room temperature and cut into an appropriate size before mounting on the Franz diffusion cells. The receptor compartment was filled with PBS containing 0.02%w/v of sodium azide and a selected antioxidant. The Franz diffusion cells were placed into a water bath to maintain the skin temperature at 32 ± 0.5 °C. […] After 48-h permeation studies, the mass balance studies were performed. The samples were extracted for MTG content overnight before HPLC analysis.
(§2) BHT at the optimised concentration was also added accordingly. The gels were evaluated for their drug content by mixing the gel in methanol for overnight extraction of MTG before HPLC analysis (Sect. HPLC analysis). In vitro drug release studies were carried out with a similar experimental setup as described in Sect. In vitro permeation and mass balance studies but porcine skin was replaced with a 0.45 µm nylon membrane filter and 40 μL of gel was loaded on the membrane at the donor compartment. Subsequent in vitro permeation and mass balance studies were performed as described in Sect. In vitro permeation and mass balance studies by loading 40 μL of the gel on the skin.

[2] = rats; cited from earlier work
[3] = cited from earlier work
[4] = Stability studies of MTG in simple solvent systems with and without BHT; format: physicochemical
Experimental: (§3) Samples were analysed using Shimadzu liquid chromatographic system (Kyoto, Japan) with SPD-20A UV–vis detector set at 254 nm. A reverse phase ZORBAX Eclipse Plus C18 column (Agilent Technologies, 150 × 4.6 mm ID × 3.5 μm) coupled with a C18 guard column (Phenomenex SecurityGuard™, 4 × 3.0 mm ID × 5 μm) was employed as the stationary phase. A gradient elution method with acetonitrile and 0.1%v/v of formic acid as the mobile phase (30:70 to 70:30 (v/v) over 1 min and held until 4 min; then returned to 30:70 (v/v) from 4 to 6 min and held up until 10 min) at a flow rate of 1.2 mL/min was used. The injection volume was set at 100 μL and the total run time was 10 min with a retention time of ~ 4 min. The limits of detection and quantification were 0.47 and 1.43 μg/mL for a lower concentration drug range (0.5–10 μg/mL) and 4.29 and 13.01 μg/mL for a higher concentration drug range (10–175 μg/mL), respectively. The linearity for both calibration curves was excellent (R^2 > 0.999).

[5] = Stability of MTG in PBS receptor medium with antioxidants (DTT, ascorbic acid); format: physicochemical; details: 32 °C
Experimental: The drug content was analysed using HPLC (Sect. HPLC analysis) at 24, 48, 72 and 96 h.
as §3

[6] = Mass balance studies after skin permeation of MTG gels; format: in vitro ADME, porcine; details: pig
Experimental: as §1
Immediately post-application, any remaining MTG was swabbed from the skin surface with cotton buds and added into an Eppendorf tube. Subsequently, the surface of the skin was washed twice with 500 μL of methanol before adding to the same Eppendorf tube containing the cotton buds. The skin was removed from the dissembled Franz diffusion cell and cut into pieces before placing in another Eppendorf tube containing 1 mL of methanol. All samples were vortexed and analysed using HPLC (Sect. HPLC analysis).
as §2

Compound: CC[C@@H]1CN2CCc3c([nH]c4cccc(OC)c34)[C@@H]2C[C@@H]1/C(=C\OC)C(=O)OC [MTG, mitragynine]
- Drug release percentage ([1]; 1% MTG gel with DMSO): 65.07 ± 7.59%
- Drug release percentage ([1]; 1% MTG gel with PG): 57.45 ± 3.18%
- Drug release percentage ([1]; 1% MTG gel with Transcutol): 78.48 ± 6.17%
- Oral bioavailability [2]: 3%
- MTG loss ([3]; basic environments (pH 8 and 10), 40 °C over 8 h): ≤ 20%
- MTG loss ([3]; pH 4 over 24 h): ~ 11.2%
- Percentage recovery of MTG ([4]; 200 μg/mL in DMSO without BHT, 32 °C, after 96 h): 67.68 ± 1.22%
- Percentage recovery of MTG ([4]; 200 μg/mL in Labrasol with 0.01%w/v BHT, 32 °C, after 96 h): 46.34 ± 2.49%
- Percentage recovery of MTG ([4]; 200 μg/mL in Labrasol without BHT, 32 °C, after 96 h): 4.39 ± 0.70%
- Percentage recovery of MTG ([4]; 200 μg/mL in Lauroglycol without BHT, 32 °C, after 96 h): 30.84 ± 1.21%
- Percentage recovery of MTG ([4]; 200 μg/mL in Maisine without BHT, 32 °C, after 96 h): 19.65 ± 1.17%
- Percentage recovery of MTG ([4]; 200 μg/mL in PG without BHT, 32 °C, after 96 h): 73.82 ± 1.05%
- Percentage recovery of MTG ([4]; 200 μg/mL in Transcutol without BHT, 32 °C, after 96 h): 40.23 ± 5.46%
- Percentage recovery of MTG ([4]; DMSO, PG and Transcutol with at least 0.05%w/v of BHT): above 80%
- Percentage recovery of MTG ([4]; in all solvents (without BHT) after 96 h): < 80%
- Percentage recovery of MTG ([4]; remaining solvents (Transcutol, Lauroglycol, Maisine, Labrasol) without BHT, after 96 h): < 50%
- Percentage recovery of MTG ([5]; 50 µg/mL in PBS with DTT (0.01-0.1%w/v), 96 h, lowest recovery): ~ 81%
- Percentage recovery of MTG ([5]; 50 µg/mL in PBS with ascorbic acid (0.01-0.1%w/v, regardless of concentration), 96 h): > 99%
- Percentage recovery of MTG ([5]; 50 µg/mL in PBS without antioxidant, after 96 h): ~ 96%
- recovery at 48 h, 1 % ([6]; 1% MTG gel with DMSO and BHT, read-out: Total percentage (mass balance recovery)): 81.3 ± 24.3%
- recovery at 48 h, 1 % ([6]; 1% MTG gel with PG and BHT, read-out: Total percentage (mass balance recovery)): 85.5 ± 16.1%
- recovery at 48 h, 1 % ([6]; 1% MTG gel with Transcutol and BHT, read-out: Total percentage (mass balance recovery)): 87.7 ± 10.8%
- recovery at 48 h, 1 % ([6]; all gel formulations (DMSO, PG, Transcutol) with BHT, read-out: Total drug recovery (mass balance)): > 80%

— article PMC12507957 (Drug Delivery and Translational Research, 2025)
